Laboratory results: a melting point compilation (Tetko et al.)

| melting point [°C] | Compound |
| --- | --- |
| 157 to 159 | Cc1cc(C(=O)O)nn1-c1ccccn1 |
| 118 to 120 | CCC(C)Oc1ccc(C(=O)O)cc1 (configuration not stated) |
| 169 to 171 | CC(C)Nc1ncccc1C(=O)O |
| 188 to 192 | O=C(CSc1nnc(S)s1)c1ccccc1 |
| 106 to 108 | O=C(O)CCc1cccc(F)c1F |
| 198 to 200 | O=c1[nH]c(-c2ccccn2)no1 |
| 174 to 176 | Nc1ccc(S(=O)(=O)NCc2ccc(Cl)cc2)cc1 |
| 177 to 179 | Nc1ccc(Cl)cc1C(=O)Nc1ccc(Cl)cn1 |
| 149 to 151 | CN(c1ccc(O)cc1)S(=O)(=O)c1cccs1 |
| 119 to 121 | CC(C)CC(C(=O)O)N1C(=O)c2ccccc2C1=O (configuration not stated) |
| 134 to 136 | CNC(=O)Cn1ccc2ccc(N)cc21 |
| 167 to 169 | Cc1nnc(SCC(=O)O)n1Cc1ccccc1 |
| 162 to 164 | COc1ccc(-c2nn(-c3ccccc3)cc2C=CC(=O)O)cc1OC |
| 242 to 244 | O=C1CCc2c(O)cccc21 |
| 78 to 82 | O=C(NCc1ccccc1)c1ccccc1O |
| 132 to 134 | O=C(O)c1ccc(Oc2cccc(Cl)c2)cc1 |
| 139 to 141 | Nc1sc2c(c1C(=O)c1ccc(Cl)cc1)CCCC2 |
| 163 to 165 | O=c1[nH]c(-c2cccc(Cl)c2)cs1 |
| 235 to 237 | Cc1nc(-c2ccccn2)sc1C(=O)O |

| melting point [°C] | Compound |
| --- | --- |
| 111 to 124 | CC(=O)c1ccc(-n2cncn2)cc1 |
| 159 to 161 | Nc1nncc(-c2ccccc2OC(F)F)n1 |
| 124 to 126 | O=C(O)Cc1csc(-c2cccc(F)c2)n1 |
| 135 to 137 | O=C(O)CCc1ccc2ccccc2c1 |
| 156 to 158 | O=C(O)c1cc(CCc2ccccc2)ccc1O |
| 125 to 127 | O=C(CCl)Nc1cc([N+](=O)[O-])ccc1F |
| 199 to 201 | CCCNS(=O)(=O)c1cccc(C(=O)O)c1 |
| 82 to 84 | COC(=O)C(C)NC(=O)Cc1ccc(Cl)cc1 (configuration not stated) |
| 65 to 67 | O=C(O)CCCCCc1ccc(I)cc1 |
| 91 to 93 | CC(=O)c1cccc(NS(C)(=O)=O)c1 |
| 208 to 210 | O=C(Nc1ccccc1C(=O)O)c1ccc(Cl)cc1 |
| 225 to 227 | COC(=O)c1cncc(C(=O)O)c1 |
| 103 to 105 | CC(=O)c1sc(-c2ccc(Br)cc2)nc1C |
| 51 to 53 | CC(=O)NCCNCc1ccccc1 |
| 41 to 43 | CCC(C(=O)O)c1cccc(C(F)(F)F)c1 (configuration not stated) |
| 55 to 57 | Cc1cccc(OCCCC(=O)O)c1 |
| 249 to 251 | CC(C)(C)N1C(=O)CC(C(=O)O)C1c1ccc(Cl)c(F)c1 (configuration not stated) |
| 218 to 220 | Cn1cc(Nc2cccc(C(=O)O)c2)cn1 |
| 149 to 151 | O=C(O)C(Cc1ccccc1)NC(=O)C(c1ccccc1)c1ccccc1 (configuration not stated) |

| melting point [°C] | Compound |
| --- | --- |
| 263 to 265 | O=C(O)CCc1nc2ccccc2[nH]c1=O |
| 204 to 206 | CC(=O)Nc1ccc(C(=O)O)nc1 |
| 256 to 258 | O=C1c2ccccc2C(=O)N1CCc1nn[nH]n1 |
| 175 to 177 | CCc1cccc2c(CC(=O)O)c[nH]c12 |
| 134 to 136 | O=C(O)c1cnc(Oc2ccccc2)cn1 |
| 107 to 109 | O=C1NCCSC1Cc1ccccc1 (configuration not stated) |
| 57 to 59 | CCOc1ccc(C(=O)CBr)cc1 |
| 96 to 98 | NCc1ccc(NC(=O)CCCOc2ccccc2)cc1 |
| 179 to 181 | Cn1c(=O)c(CBr)nc2ccccc21 |
| 147 to 151 | NNc1ccc2ccccc2n1 |
| 81 to 83 | COC(=O)C(=O)CC(=O)c1ccccc1F |
| 179 to 181 | CCCOc1ccc(/C=C/C(=O)O)cc1 |
| 121 to 123 | CC(Nc1ccc(N(C)C)cc1)c1ccccn1 (configuration not stated) |
| 115 to 117 | COC(=O)Nc1ccc(O)cc1 |
| 151 to 153 | O=C(O)CN1C(=O)CSc2ccccc21 |
| 192 to 194 | Cc1cc(C(=O)O)c(C)n1-c1cccnc1 |
| 108 to 110 | CC(=NO)c1ccc(S(=O)(=O)N(C)C)cc1 |
| 88 to 90 | CCS(=O)(=O)Nc1ccc(N)cc1 |
| 107 to 109 | CCC(Br)C(=O)c1ccc(NC(C)=O)cc1 (configuration not stated) |

The remaining lines, values behind:

| Compound | melting point [°C] |
| --- | --- |
| Cn1c(=O)[nH]c(=O)c2cc(S(N)(=O)=O)cnc21 | 311 to 313 |
| Nc1cc(S(=O)(=O)NC2CC2)c(Cl)cc1F | 120 to 122 |
| O=C(O)c1cc(S(=O)(=O)Cl)cs1 | 139 to 141 |
| CC(C)(C)OC(=O)NCCCC(=O)NN | 114 to 116 |
| Clc1ccc(Cl)c(OCC2CO2)c1 (configuration not stated) | 62 to 64 |
| CC1CCc2sc(C(=O)NN)cc2C1 (configuration not stated) | 122 to 124 |
| OCCOc1ccc(Br)cn1 | 51 to 53 |
| COc1ccc(O)c(C(C)(C)C)c1 | 61 to 63 |
| COc1cc(C(=O)O)sc1S(N)(=O)=O | 254 to 256 |
| Cc1ccc(-n2nnnc2S)c(C)c1 | 110 to 112 |
| Nc1cc(CC2CCCCC2)no1 | 106 to 108 |
| O=C(O)c1cc(N2CCOCC2)ccc1[N+](=O)[O-] | 188 to 192 |
| CC1(C)OCC(C)(C(=O)O)CO1 | 117 to 119 |
| Cc1cccc2c1C(=O)NCCN2 | 182 to 184 |
| CN(C)CCCNC(=O)c1cccnc1Cl | 97 to 101 |
| CC1(C)NC(=O)N(CC(=O)O)C1=O | 167 to 169 |
| NCCc1cc2ccccc2[nH]1 | 95 to 97 |
| Cc1cc(C)c2nc(Cl)cc(C)c2c1 | 128 to 132 |
| Nc1noc(COc2ccc(F)cc2)n1 | 154 to 156 |
| COC(=O)c1sc(N2CCOCC2)nc1N | 156 to 158 |
| N=c1nc[nH]c2c1ncn2CCC(N)=O | 255 to 257 |
| CSc1ccc(C=NO)cc1 | 114 to 116 |
| Cc1cnn(-c2ccc(S(N)(=O)=O)cc2F)c1 | 189 to 191 |

| Compound | melting point [°C] |
| --- | --- |
| Cn1cc(C(=O)NC2CCNCC2)cn1 | 204 to 206 |
| CCCn1c(C)cc(C=O)c1C | 52 to 54 |
| CCOC(=O)c1c(C)oc2nc(CCl)nc(N)c12 | 191 to 195 |
| Sc1nc(-c2cccnc2)no1 | 179 to 181 |
| CC(=O)c1cc(Br)sc1C | 41 to 43 |
| Nc1ccc(-c2csc(N3CCOCC3)n2)cc1 | 174 to 176 |
| Cc1c(C(=O)O)cnn1CC(C)C | 109 to 111 |
| COc1ccc(C#N)cc1N | 74 to 76 |
| NS(=O)(=O)c1cnn(-c2cccc(C(F)(F)F)c2)c1 | 162 to 164 |
| FC(F)(F)Cn1nnnc1S | 122 to 124 |
| COc1cc(C)nc(C=O)c1 | 57 to 59 |
| O=C1CN(S(=O)(=O)c2cccc([N+](=O)[O-])c2)CCN1 | 217 to 219 |
| COc1ccc(N)cc1S(=O)(=O)N1CCCCC1 | 93 to 95 |
| N#Cc1ccc(N2CCNCC2)c(F)c1 | 84 to 86 |
| CC(=O)c1c(C)nc2sccn12 | 132 to 134 |
| CN1CCN(c2ccc(N)nc2)CC1 | 119 to 121 |
| O=C(O)c1scnc1C1CC1 | 204 to 206 |
| COC(=O)C1CCN(c2ccnc(C#N)c2)CC1 | 104 to 106 |
| CC=Cc1ccc(OCC(=O)OC)c(OC)c1 | 68 to 70 |
| O=C1CCOc2c(Br)cccc21 | 62 to 64 |
| Cc1cc(-c2cc(C(=O)O)c3c(C)noc3n2)c(C)o1 | 266 to 268 |
| COc1cc(C=CC(=O)O)ccc1OCC#N | 164 to 166 |
